Reference: a compilation of properties of binary mixtures (doi:10.1007/s10953-021-01067-6)

Experiment: xn = mol fraction of the nth substance listed
Conditions: 101.3 kPa

CCCCCC[NH2+]CCN.O=S(=O)([N-]S(=O)(=O)C(F)(F)F)C(F)(F)F + O
Conditions | electrical conductivity [S/m] | viscosity [mPa·s]
303.15 K, x1 = 0.401 | 0.251 | 51.4
303.15 K, x1 = 0.4387 | 0.209 | 66.6
303.15 K, x1 = 0.5021 | 0.135 | 104
303.15 K, x1 = 0.5762 | 0.066 | 117
303.15 K, x1 = 0.6827 | 0.0619 | 168
303.15 K, x1 = 0.8153 | 0.0416 | 226
303.15 K, x1 = 0.8939 | 0.0284 | 260
308.15 K, x1 = 0.401 | 0.324 | 40.1
308.15 K, x1 = 0.4387 | 0.267 | 51
308.15 K, x1 = 0.5762 | 0.0972 | 86.6
308.15 K, x1 = 0.6827 | 0.085 | 131
308.15 K, x1 = 0.8153 | 0.0537 | 160
308.15 K, x1 = 0.8939 | 0.0432 | 179
313.15 K, x1 = 0.401 | 0.396 | 31.8
313.15 K, x1 = 0.4387 | 0.328 | 39.8
313.15 K, x1 = 0.5021 | 0.221 | 59.1
313.15 K, x1 = 0.5762 | 0.138 | 65.5
313.15 K, x1 = 0.6827 | 0.11 | 97.4
313.15 K, x1 = 0.8153 | 0.0733 | 118
313.15 K, x1 = 0.8939 | 0.056 | 131
318.15 K, x1 = 0.401 | 0.485 | 25.7
318.15 K, x1 = 0.4387 | 0.409 | 31.6
318.15 K, x1 = 0.5021 | 0.278 | 45.9
318.15 K, x1 = 0.6827 | 0.144 | 74.1
318.15 K, x1 = 0.8153 | 0.0987 | 88.2
318.15 K, x1 = 0.8939 | 0.075 | 95.9
323.15 K, x1 = 0.4387 | 0.502 | 25.6
323.15 K, x1 = 0.5021 | 0.34 | 36.3
323.15 K, x1 = 0.5762 | 0.232 | 39.6
323.15 K, x1 = 0.6827 | 0.184 | 57.4
323.15 K, x1 = 0.8153 | 0.13 | 65.4
323.15 K, x1 = 0.8939 | 0.101 | 72.1
328.15 K, x1 = 0.401 | 0.71 | 17.7
328.15 K, x1 = 0.4387 | 0.603 | 20.9
328.15 K, x1 = 0.5762 | 0.288 | 31.6
328.15 K, x1 = 0.8153 | 0.166 | 50.6
328.15 K, x1 = 0.8939 | 0.13 | 55.6
333.15 K, x1 = 0.401 | 0.838 | 15
333.15 K, x1 = 0.4387 | 0.727 | 17.4
333.15 K, x1 = 0.5021 | 0.505 | 23.8
333.15 K, x1 = 0.5762 | 0.372 | 25.7
333.15 K, x1 = 0.6827 | 0.293 | 35.8
333.15 K, x1 = 0.8153 | 0.21 | 39.8
333.15 K, x1 = 0.8939 | 0.169 | 43.6
338.15 K, x1 = 0.401 | 0.973 | 12.8
338.15 K, x1 = 0.4387 | 0.858 | 14.7
338.15 K, x1 = 0.5762 | 0.441 | 21.2
338.15 K, x1 = 0.6827 | 0.359 | 29.2
338.15 K, x1 = 0.8153 | 0.263 | 31.8
338.15 K, x1 = 0.8939 | 0.203 | 36.5
343.15 K, x1 = 0.401 | 1.13 | 11.1
343.15 K, x1 = 0.4387 | 1.01 | 11.9
343.15 K, x1 = 0.5021 | 0.705 | 16.5
343.15 K, x1 = 0.5762 | 0.521 | 17.7
343.15 K, x1 = 0.8939 | 0.255 | 28.2
348.15 K, x1 = 0.4387 | 1.12 | 10.3
348.15 K, x1 = 0.5021 | 0.808 | 14
348.15 K, x1 = 0.6827 | 0.503 | 20.5
348.15 K, x1 = 0.8153 | 0.399 | 21.4
348.15 K, x1 = 0.8939 | 0.31 | 24.4
353.15 K, x1 = 0.401 | 1.47 | 8.8
353.15 K, x1 = 0.4387 | 1.34 | 9
353.15 K, x1 = 0.5021 | 0.908 | 12
353.15 K, x1 = 0.6827 | 0.601 | 16.9
353.15 K, x1 = 0.8153 | 0.37 | 17
353.15 K, x1 = 0.8939 | – | 20.7
